# Values quoted from earlier work, collected in US11225462B2, “Crystal forms of oxypyridine amide derivative and preparation method therefor” (JIANGSU HENGRUI MEDICINE CO., LTD., priority 2018, dated 2022).
# Tests used:
# FXIa = FXIa (Homo sapiens, UniProt P03951); conditions: reported in WO 2018041122; cited from earlier work
# human blood = conditions: reported in WO 2018041122; cited from earlier work
# [1] = reported in WO 2018041122; cited from earlier work
# Sequence of FXIa (P03951 388-625 limits assumed): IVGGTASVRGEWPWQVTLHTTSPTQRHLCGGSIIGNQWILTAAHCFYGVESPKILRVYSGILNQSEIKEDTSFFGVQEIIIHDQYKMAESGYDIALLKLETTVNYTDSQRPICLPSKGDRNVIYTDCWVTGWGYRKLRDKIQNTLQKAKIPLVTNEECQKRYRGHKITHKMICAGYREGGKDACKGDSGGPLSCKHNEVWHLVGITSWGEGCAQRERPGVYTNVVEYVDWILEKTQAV
# Sequence of FXIa (P03951 19-387 partner limits assumed): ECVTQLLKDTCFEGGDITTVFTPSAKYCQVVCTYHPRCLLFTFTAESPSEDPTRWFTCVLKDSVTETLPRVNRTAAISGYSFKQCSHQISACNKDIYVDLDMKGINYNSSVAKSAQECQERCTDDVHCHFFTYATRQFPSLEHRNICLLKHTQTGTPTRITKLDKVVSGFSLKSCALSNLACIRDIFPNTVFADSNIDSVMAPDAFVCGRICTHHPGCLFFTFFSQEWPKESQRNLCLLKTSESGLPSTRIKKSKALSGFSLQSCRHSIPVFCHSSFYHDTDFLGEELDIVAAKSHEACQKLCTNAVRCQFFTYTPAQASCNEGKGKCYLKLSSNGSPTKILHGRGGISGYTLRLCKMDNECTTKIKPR
smiles,measurement,setting,value
"CCC(=O)c1ccc(Cl)cc1-c1cc(=O)n([C@@H](CCOC(C)(C)C)C(=O)Nc2ccc(C(=O)O)cc2)cc1OC [compound of formula (I), (S)-4-(4-(tert-butoxy)-2-(4-(5-chloro-2-propionylphenyl)-5-methoxy-2-oxopyridin-1(2H)-yl)butanamido)benzoic acid]",inhibitory effect on FXIa,FXIa,significant inhibitory effect
same,anticoagulant effect on human blood,human blood,significant anticoagulant effect
same,pharmacokinetic absorption,[1],good pharmacokinetic absorption
